Data reported in patent US20240316038A1, “APOL1 INHIBITORS AND METHODS OF USE” (Maze Therapeutics, Inc., priority 2021, published 2024).

Legend:
APOL1 G2 [1] = target: T1, APOL1 G2 (Homo sapiens, UniProt O14791, DEL388-389); experiment: Rescue of HEK293 cell death caused by overexpression of APOL1 (CellTiter-Glo luminescence), HEK293/T-REx APOL1 G2/clone #2; format: cell-based; settings: reversal of cell death caused by overexpression of APOL1; geometric mean of at least 2 assay runs, † = single assay run (technical duplicate)
T1 construct: expressed in transfected cells; host or cells: HEK293 T-REx clonal lines: HEK T-REx/GCaMP6f/APOL1 G2 K6.3 in A1, HEK293/T-REx APOL1 G2/clone #2 in A2
T1 sequence (O14791 with tags, fused parts or gaps DEL388-389): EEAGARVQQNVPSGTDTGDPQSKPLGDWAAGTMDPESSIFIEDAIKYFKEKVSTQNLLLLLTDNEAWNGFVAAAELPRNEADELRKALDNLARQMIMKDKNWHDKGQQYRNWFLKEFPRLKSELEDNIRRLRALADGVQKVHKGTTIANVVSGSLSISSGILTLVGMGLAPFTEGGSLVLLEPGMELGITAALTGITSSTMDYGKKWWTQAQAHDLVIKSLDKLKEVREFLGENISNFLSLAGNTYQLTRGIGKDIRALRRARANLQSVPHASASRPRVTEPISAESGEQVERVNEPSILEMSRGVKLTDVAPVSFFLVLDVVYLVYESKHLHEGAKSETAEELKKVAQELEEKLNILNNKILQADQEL
Method in brief: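 HEK293/T-REx APOL1 G2 clone #2 cells, 5,000/well, induced with 6 ng/mL doxycycline and exposed to compound (8-point, 3-fold dilutions, 0.5% DMSO) for 17 h at 37 °C. Viability by CellTiter-Glo luminescence; EC50 for reversal of APOL1-induced death from a four-parameter logistic fit, geometric mean of ≥2 runs.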

APOL1 G2 [2] = target: T1, APOL1 G2; experiment: APOL1 calcium transport inhibition assay (GCaMP6f calcium influx, FLIPR) in HEK T-REx/GCaMP6f/APOL1 G2 K6.3 cells; format: cell-based; settings: inhibition of APOL1-mediated calcium influx; geometric mean of at least 2 assay runs, † = single assay run (technical duplicate)
Method in brief: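 HEK293 cells stably expressing GCaMP6f, APOL1 G2 induced 6 h with doxycycline (20 ng/mL added), then washed into Ca2+-free Tyrode's buffer pH 7.4. Compounds (8-point dose response) preincubated 10 min at room temperature, then Ca2+ injected to 5 mM final and influx read on FLIPR. AC50 reported as geometric mean of runs.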

AC50 (APOL1 G2 [2]) [nM]	Compound	EC50 (APOL1 G2 [1]) [nM]
< 267	CCN(CCc1cccc(Cl)c1)C[C@H](O)COc1ccc(N(C)S(C)(=O)=O)cc1 [Compound 60, (S)-N-(4-(3-((3-chlorophenethyl)(ethyl)amino)-2-hydroxypropoxy)phenyl)-N-methylmethanesulfonamide]	306
376	C[C@H](CNCCc1cccc(Cl)c1)COc1ccc(N(C)S(C)(=O)=O)cc1 [Compound 61, (R)—N-(4-(3-((3-chlorophenethyl)amino)-2-methylpropoxy)phenyl)-N-methylmethanesulfonamide]	933
396	CS(=O)(=O)c1ccc(OC[C@@H](O)CN2CCCCC2Cc2cccc(Cl)c2)cc1 (stereo partly drawn) [Compound 62, (2S)-1-(2-(3-chlorobenzyl)piperidin-1-yl)-3-(4-(methylsulfonyl)phenoxy)propan-2-ol]	642
340	CS(=O)(=O)c1ccc(OC[C@H](O)CN[C@H]2C[C@H](c3cccc(Cl)c3)C2)cc1 [Compound 67, (R)-1-((trans-3-(3-chlorophenyl)cyclo-butyl)amino)-3-(4-(methylsulfonyl)phe-noxy)propan-2-ol]	1350
1670	CN(c1ccc(OC[C@H](O)CN2CCC(c3cccc(Cl)c3)C2)cc1)S(C)(=O)=O (stereo partly drawn) [Compound 77, N-(4-((2R)-3-(3-(3-chlorophenyl)pyrro-lidin-1-yl)-2-hydroxypropoxy)phe-nyl)-N-methylmethanesulfon-amide]	> 6300
682	CN(c1ccc(OC[C@H](O)CNC2(Cc3cccc(Cl)c3)CCOC2)cc1)S(C)(=O)=O (stereo partly drawn) [Compound 92, N-(4-((2R)-3-((3-(3-chlorobenzyl)tetra-hydrofuran-3-yl)amino)-2-hydroxypropoxy)phe-nyl)-N-methylmethanesulfon-amide]	> 9790
4140	CN(c1ccc(OC[C@@H](O)CNCCc2cccc(C#N)c2)cc1)S(C)(=O)=O [Compound 99, (S)-N-(4-(3-((3-cyanophenethyl)a-mino)-2-hydroxypropoxy)phe-nyl)-N-methylmethanesulfon-amide]	> 30000
1300	CN(c1ccc(OC[C@@H](O)CNCCc2ccccc2OC(F)F)cc1)S(C)(=O)=O [Compound 101, (S)-N-(4-(3-((2-(difluoromethoxy)phenethyl)amino)-2-hydroxypropoxy)phe-nyl)-N-methylmethanesulfon-amide]	10100
946	CN(c1ccc(NCC(O)CNCCc2cccc(Cl)c2)cc1)S(C)(=O)=O (centres unmarked) [Compound 105, N-(4-((3-((3-chlorophenethyl)a-mino)-2-hydroxypropyl)ami-no)phenyl)-N-methylmethanesulfon-amide]	> 12400

The next lines start with the compound.

Compound	AC50 (APOL1 G2 [2]) [nM]	EC50 (APOL1 G2 [1]) [nM]
CN(c1ccc(OC[C@@H](O)CN(CCc2cccc(Cl)c2)CC2CC2)cc1)S(C)(=O)=O [Compound 59, (S)—N-(4-(3-((3-chlorophenethyl)(cyclopropylmethyl)amino)-2-hydroxypropoxy)phenyl)-N-methylmethanesulfonamide]	245	1060
CN(c1ccc(OC[C@@H](O)CN[C@H]2C[C@H](c3cccc(Cl)c3)C2)cc1)S(C)(=O)=O [Compound 65, N-(4-((S)-3-((trans-3-(3-chlorophenyl)cyclo-butyl)amino)-2-hydroxypropoxy)phe-nyl)-N-methylmethanesulfon-amide]	258	955
CS(=O)(=O)c1ccc(OC[C@@H](O)CN[C@H]2C[C@H](c3cccc(Cl)c3)C2)cc1 [Compound 66, (S)-1-((trans-3-(3-chlorophenyl)cyclo-butyl)amino)-3-(4-(methylsulfonyl)phe-noxy)propan-2-ol]	468	1380
CN(c1ccc(OC[C@@H](O)CN2CCC(c3cccc(Cl)c3)C2(C)C)cc1)S(C)(=O)=O (stereo partly drawn) [Compound 68, N-(4-((2S)-3-(3-(3-chlorophenyl)-2,2-dimethylpyrrolidin-1-yl)-2-hydroxypropoxy)phe-nyl)-N-methylmethanesulfon-amide]	916	591
CN(c1ccc(OC[C@H](O)CN2CCC(c3cccc(Cl)c3)C2(C)C)cc1)S(C)(=O)=O (stereo partly drawn) [Compound 71, N-(4-((2R)-3-(3-(3-chlorophenyl)-2,2-dimethylpyrrolidin-1-yl)-2-hydroxypropoxy)phe-nyl)-N-methylmethanesulfon-amide]	943	1960
CN(c1ccc(OC[C@@H](O)CN2CCC(c3cccc(Cl)c3)C2)cc1)S(C)(=O)=O (stereo partly drawn) [Compound 74, N-(4-((2S)-3-(3-(3-chlorophenyl)pyrro-lidin-1-yl)-2-hydroxypropoxy)phe-nyl)-N-methylmethanesulfon-amide]	1290	2580
CN(c1ccc(OC[C@@H](O)CN2CCOC(c3cccc(Cl)c3)C2)cc1)S(C)(=O)=O (stereo partly drawn) [Compound 80, N-(4-((2S)-3-(2-(3-chlorophenyl)morpho-lino)-2-hydroxypropoxy)phe-nyl)-N-methylmethanesulfon-amide]	13900	13000
CN(c1ccc(OC[C@H](O)CN2CCOC(c3cccc(Cl)c3)C2)cc1)S(C)(=O)=O (stereo partly drawn) [Compound 83, N-(4-((2R)-3-(2-(3-chlorophenyl)morpho-lino)-2-hydroxypropoxy)phe-nyl)-N-methylmethanesulfon-amide]	> 25000	> 30000
CN(c1ccc(OC[C@@H](O)CNCCc2cccc(Cl)c2)cc1)S(C)(=O)=O [Compound 86, (S)-N-(4-(3-((3-chlorophenethyl)a-mino)-2-hydroxypropoxy)phe-nyl)-N-methylmethanesulfon-amide]	557	> 4110
CN(c1ccc(OC[C@H](O)CNCCc2cccc(Cl)c2)cc1)S(C)(=O)=O [Compound 87, (R)-N-(4-(3-((3-chlorophenethyl)a-mino)-2-hydroxypropoxy)phe-nyl)-N-methylmethanesulfon-amide]	352	1850
CN(c1ccc(OC[C@@H](O)CNCCc2cc(Cl)ccc2Cl)cc1)S(C)(=O)=O [Compound 90, (S)-N-(4-(3-((2,5-dichlorophenethyl)amino)-2-hydroxypropoxy)phe-nyl)-N-methylmethanesulfon-amide]	515	1460
CN(c1ccc(OC[C@@H](O)CNCCc2cc(Cl)cc(Cl)c2)cc1)S(C)(=O)=O [Compound 91, (S)-N-(4-(3-((3,5-dichlorophenethyl)amino)-2-hydroxypropoxy)phe-nyl)-N-methylmethanesulfon-amide]	472	1040
CS(=O)(=O)c1ccc(OC[C@@H](O)CNCCc2cccc(Cl)c2)cc1 [Compound 93, (S)-1-((3-chlorophenethyl)a-mino)-3-(4-(methylsulfonyl)phe-noxy)propan-2-ol]	6540	> 30000
CS(=O)(=O)c1ccc(OC[C@H](O)CNCCc2cccc(Cl)c2)cc1 [Compound 94, (R)-1-((3-chlorophenethyl)a-mino)-3-(4-(methylsulfonyl)phe-noxy)propan-2-ol]	1620	8370
CC(C)(Cc1cccc(Cl)c1)NC[C@@H](O)COc1ccc(S(C)(=O)=O)cc1 [Compound 97, (R)-1-((1-(3-chlorophenyl)-2-methylpropan-2-yl)amino)-3-(4-(methylsulfonyl)phe-noxy)propan-2-ol]	314	460
COc1ccccc1CCNC[C@H](O)COc1ccc(N(C)S(C)(=O)=O)cc1 [Compound 98, (S)-N-(4-(2-hydroxy-3-((2-methoxyphenethyl)amino)propoxy)phe-nyl)-N-methylmethanesulfon-amide]	3920	> 20000
CCc1ccccc1CCNC[C@H](O)COc1ccc(N(C)S(C)(=O)=O)cc1 [Compound 100, (S)-N-(4-(3-((2-ethylphenethyl)ami-no)-2-hydroxypropoxy)phe-nyl)-N-methylmethanesulfon-amide]	1260	2730
CS(=O)(=O)c1ccc(OC[C@H](O)CNC(Cc2cccc(Cl)c2)C2CC2)cc1 (stereo partly drawn) [Compound 102, (2R)-1-((2-(3-chlorophenyl)-1-cyclopropylethyl)a-mino)-3-(4-(methylsulfonyl)phe-noxy)propan-2-ol]	2190	> 21800
C[C@@H]1CN(CCc2cccc(Cl)c2)C[C@H]1COc1ccc(S(=O)(=O)CCS(C)(=O)=O)cc1 [Compound 107, (3S,4S)-1-[2-(3-chlorophenyl)ethy 1]-3-{[4-(2-methanesulfonyl-ethanesulfonyl)phenoxy]methyl}-4-methyl-pyrrolidine]	91.9	80.9
